Data: ChEMBL document CHEMBL1201862, “PubChem BioAssay data set” (2004)
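Tested at 5 concentrations; 48 h exposure; 96-well plates; endpoints linearly interpolated, else capped at highest concentration. The concentration for 50% growth inhibition is given as GI50.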 Active and inactive are the calls of the source. No stated cut-off is given here; in the data, active = GI50 up to about 1.1 µM and inactive = higher.

Legend:
Assay in all cases: NCI-60 cell line screen, 48 h
TK-10 = system: TK-10
A498 = system: A498
Malme-3M = system: Malme-3M
HCT-15 = system: HCT-15
EKVX = system: EKVX
NCI/ADR-RES = system: NCI/ADR-RES
ACHN = system: ACHN
UO-31 = system: UO-31
MDA-N = system: MDA-N
SN12C = system: SN12C
HCC 2998 = system: HCC 2998
COLO 205 = system: COLO 205
SF-295 = system: SF-295
RXF 393 = system: RXF 393
SR = system: SR
Hs-578T = system: Hs-578T
UACC-62 = system: UACC-62
IGROV-1 = system: IGROV-1
A549 = system: A549
MOLT-4 = system: MOLT-4
786-0 = system: 786-0
HOP-62 = system: HOP-62
NCI-H226 = system: NCI-H226
K562 = system: K562
SW-620 = system: SW-620
OVCAR-3 = system: OVCAR-3
NCI-H460 = system: NCI-H460
RPMI-8226 = system: RPMI-8226
SK-MEL-2 = system: SK-MEL-2
MDA-MB-435 = system: MDA-MB-435
KM12 = system: KM12
U-251 = system: U-251
NCI-H23 = system: NCI-H23
HL-60 = system: HL-60
OVCAR-5 = system: OVCAR-5
DU-145 = system: DU-145
LOX IMVI = system: LOX IMVI
SK-OV-3 = system: SK-OV-3
OVCAR-4 = system: OVCAR-4
MDA-MB-231 = system: MDA-MB-231
SNB-19 = system: SNB-19
HCT-116 = system: HCT-116
SK-MEL-5 = system: SK-MEL-5
CAKI-1 = system: CAKI-1
OVCAR-8 = system: OVCAR-8
M14 = system: M14
BT-549 = system: BT-549
MCF7 = system: MCF7
SK-MEL-28 = system: SK-MEL-28
HOP-92 = system: HOP-92
SF-539 = system: SF-539
CCRF-CEM = system: CCRF-CEM
HT-29 = system: HT-29
PC-3 = system: PC-3
NCI-H522 = system: NCI-H522
T47D = system: T47D
SF-268 = system: SF-268
UACC-257 = system: UACC-257
SNB-75 = system: SNB-75

C/C(=N\N=C1/C(=O)OC(c2ccccc2)=C1C(=O)c1ccccc1)c1ccc([N+](=O)[O-])cc1
GI50 (TK-10): > 100 µM (inactive) | GI50 (A498): > 100 µM (inactive) | GI50 (Malme-3M): 37.4 µM (inactive) | GI50 (HCT-15): 23.7 µM | GI50 (EKVX): 36.3 µM (inactive) | GI50 (NCI/ADR-RES): 60.7 µM (inactive) | GI50 (ACHN): 42.6 µM (inactive) | GI50 (UO-31): 44.7 µM (inactive) | GI50 (MDA-N): 87.9 µM (inactive) | GI50 (SN12C): 49.4 µM (inactive) | GI50 (HCC 2998): 47.9 µM (inactive) | GI50 (COLO 205): 52.2 µM (inactive) | GI50 (SF-295): 45.6 µM (inactive) | GI50 (RXF 393): 46 µM (inactive) | GI50 (SR): 6.7 µM (inactive) | GI50 (Hs-578T): 54.3 µM (inactive) | GI50 (UACC-62): 38.9 µM (inactive) | GI50 (IGROV-1): 29.2 µM (inactive) | GI50 (A549): 41.7 µM (inactive) | GI50 (MOLT-4): 19.9 µM (inactive) | GI50 (786-0): 68.7 µM (inactive) | GI50 (HOP-62): > 100 µM (inactive) | GI50 (NCI-H226): 27.8 µM (inactive) | GI50 (K562): 35 µM (inactive) | GI50 (SW-620): 46.7 µM (inactive) | GI50 (OVCAR-3): 33.7 µM (inactive) | GI50 (NCI-H460): 56.1 µM (inactive) | GI50 (RPMI-8226): 21.5 µM (inactive) | GI50 (SK-MEL-2): > 100 µM (inactive) | GI50 (MDA-MB-435): 46.7 µM (inactive) | GI50 (KM12): 86.3 µM (inactive) | GI50 (U-251): 41.5 µM (inactive) | GI50 (NCI-H23): 92.9 µM (inactive) | GI50 (HL-60): 35.8 µM (inactive) | GI50 (OVCAR-5): 72.3 µM (inactive) | GI50 (DU-145): 44.4 µM (inactive) | GI50 (LOX IMVI): 34.8 µM (inactive) | GI50 (SK-OV-3): 85.3 µM (inactive) | GI50 (OVCAR-4): 37.4 µM (inactive) | GI50 (MDA-MB-231): 79.3 µM (inactive) | GI50 (SNB-19): > 100 µM (inactive) | GI50 (HCT-116): 91.4 µM (inactive) | GI50 (SK-MEL-5): 37 µM (inactive) | GI50 (CAKI-1): 48.2 µM (inactive) | GI50 (OVCAR-8): 35.7 µM (inactive) | GI50 (M14): 65.5 µM (inactive) | GI50 (BT-549): 25.9 µM (inactive) | GI50 (MCF7): 26.7 µM (inactive) | GI50 (SK-MEL-28): 54.7 µM (inactive) | GI50 (HOP-92): 20.5 µM (inactive) | GI50 (SF-539): 65.2 µM (inactive) | GI50 (CCRF-CEM): 25.6 µM (inactive) | GI50 (HT-29): 73.8 µM (inactive) | GI50 (PC-3): 65.9 µM (inactive) | GI50 (NCI-H522): 27.7 µM (inactive) | GI50 (T47D): 42.9 µM (inactive) | GI50 (SF-268): > 100 µM (inactive) | GI50 (UACC-257): > 100 µM (inactive)

O=C(Nc1ccc2ccccc2c1)c1cc2cc(CCl)ccc2oc1=O
GI50 (TK-10): 33.2 µM (inactive) | GI50 (A498): > 100 µM (inactive) | GI50 (Malme-3M): 87.7 µM (inactive) | GI50 (HCT-15): > 100 µM | GI50 (EKVX): > 100 µM (inactive) | GI50 (NCI/ADR-RES): > 100 µM (inactive) | GI50 (ACHN): > 100 µM (inactive) | GI50 (UO-31): > 100 µM (inactive) | GI50 (MDA-N): > 100 µM (inactive) | GI50 (SN12C): > 100 µM (inactive) | GI50 (HCC 2998): > 100 µM (inactive) | GI50 (COLO 205): > 100 µM (inactive) | GI50 (SF-295): 33.3 µM (inactive) | GI50 (RXF 393): 22 µM (inactive) | GI50 (SR): > 100 µM (inactive) | GI50 (Hs-578T): 1.55 µM (inactive) | GI50 (UACC-62): > 100 µM (inactive) | GI50 (IGROV-1): > 100 µM (inactive) | GI50 (A549): > 100 µM (inactive) | GI50 (MOLT-4): > 100 µM (inactive) | GI50 (786-0): 39.4 µM (inactive) | GI50 (HOP-62): 53.5 µM (inactive) | GI50 (NCI-H226): 57.5 µM (inactive) | GI50 (K562): 54 µM (inactive) | GI50 (SW-620): > 100 µM (inactive) | GI50 (OVCAR-3): > 100 µM (inactive) | GI50 (NCI-H460): > 100 µM (inactive) | GI50 (RPMI-8226): > 100 µM (inactive) | GI50 (SK-MEL-2): 24 µM (inactive) | GI50 (MDA-MB-435): > 100 µM (inactive) | GI50 (KM12): > 100 µM (inactive) | GI50 (U-251): 30.8 µM (inactive) | GI50 (NCI-H23): 19 µM (inactive) | GI50 (HL-60): > 100 µM (inactive) | GI50 (OVCAR-5): > 100 µM (inactive) | GI50 (DU-145): > 100 µM (inactive) | GI50 (LOX IMVI): > 100 µM (inactive) | GI50 (SK-OV-3): 38.5 µM (inactive) | GI50 (OVCAR-4): > 100 µM (inactive) | GI50 (MDA-MB-231): 49 µM (inactive) | GI50 (SNB-19): 27.6 µM (inactive) | GI50 (HCT-116): > 100 µM (inactive) | GI50 (SK-MEL-5): > 100 µM (inactive) | GI50 (CAKI-1): > 100 µM (inactive) | GI50 (OVCAR-8): > 100 µM (inactive) | GI50 (M14): > 100 µM (inactive) | GI50 (BT-549): 44 µM (inactive) | GI50 (MCF7): 38.5 µM (inactive) | GI50 (SK-MEL-28): > 100 µM (inactive) | GI50 (HOP-92): 51.5 µM (inactive) | GI50 (CCRF-CEM): 55.5 µM (inactive) | GI50 (HT-29): > 100 µM (inactive) | GI50 (PC-3): > 100 µM (inactive) | GI50 (NCI-H522): 74 µM (inactive) | GI50 (T47D): > 100 µM (inactive) | GI50 (SF-268): 14.2 µM (inactive) | GI50 (UACC-257): > 100 µM (inactive) | GI50 (SNB-75): 15.2 µM (inactive)
